From US11001588B2, “Activating pyruvate kinase R and mutants thereof” (FORMA Therapeutics, Inc., priority 2018, dated 2021)

Legend:
PKR(G332S) = PKR(G332S) (Homo sapiens, UniProt P30613, G332S); assay: Luminescence Biochemical Assay (Kinase Glo Plus), PKR G332S; settings: with FBP (30 μM); for AC50: read-out: A—AC50 LUM KGP FBP AC50 μM gmean
Method: (§1) In some embodiments, a PKR Activating Compound refers to a compound having one or more characteristics when tested according to the following Luminescence Assay Protocol of Example 3 performed with wild type (wt) PKR and/or any one or more of G332S mutant form of PKR or R510Q mutant form of PKR: (1) an AC50 value of less than 40 μM (e.g., compounds with AC50 values of “+”, “++”, or “+++” in Table 2); (2) a maximum % Fold (MAX % Fold) value of greater than 75%; and/or (3) a % Fold value at 1.54 μM compound concentration (% Fold@1.54 μM) of at least 75%. In some embodiments, a PKR Activating Compound can have: (1) an AC50 value of less than 0.1 μM (e.g., compounds with AC50 values of “+++” in Table 2), 0.1-1.0 μM (e.g., compounds with AC50 values of “++” in Table 2), or 1.01-40 μM (e.g., compounds with AC50 values of “+” in Table 2); (2) a MAX % Fold of 75%-250%, 250-500%, or 75%-500%; and/or (3) a % Fold@1.54 μM of 75%-250%, 250-500%, or 75%-500%. In some embodiments, a PKR Activating Compound has (1) an AC50 value of less than 1.0 μM; (2) a MAX % Fold of 75%-500%; and/or (3) a % Fold@1.54 μM of 75%-500%.
(§2) The phosphorylation of Adenosine-5′-diphosphate (ADP) by various mutants of PKR was determined by the Kinase Glo Plus Assay (Promega) in the presence or absence of FBP [D-Fructose-1,6-diphosphate; BOC Sciences, CAS: 81028-91-3] as follows. Unless otherwise indicated, all reagents were purchased from Sigma-Aldrich. All reagents were prepared in buffer containing 50 mM Tris-HCl, 100 mM KCl, 5 mM MgCl2, and 0.01% Triton X100, 0.03% BSA, and 1 mM DTT. Enzyme and PEP [Phospho(enol) pyruvic acid] were added at 2× to all wells of an assay-ready plate containing serial dilutions of test compounds or DMSO vehicle. Final enzyme concentrations for PKR(wt), PKR(R510Q), and PKR(G332S) were 0.8 nM, 0.8 nM, and 10 nM respectively. Final PEP concentration was 100 μM. The Enzyme/PEP mixture was incubated with compounds for 30 minutes at RT before the assay was initiated with the addition of 2×ADP [Adenosine-5′-diphosphate] and KinaseGloPlus. Final concentration of ADP was 100 μM. […] For assays containing FBP, that reagent is added at 30 μM upon reaction initiation. Reactions were allowed to progress for 45 minutes at RT until luminescence was recorded by the BMG PHERAstar FS Multilabel Reader. All compounds were tested in triplicate at concentrations ranging from 42.5 μM to 2.2 nM in 0.83% DMSO.
Luminescence values were converted to % Fold increase by normalizing to the average of the DMSO control and multiplying by 100. Max, min, slope and AC50 were determined by the standard four parameter fit algorithm of ActivityBase XE Runner. Compounds were evaluated with three parameters—AC50, MAX % Fold, and % Fold@1.54 μM (FIG. 1). […]

PKR(R510Q) = PKR(R510Q) (Homo sapiens, UniProt P30613, R510Q); assay: Luminescence Biochemical Assay (Kinase Glo Plus), PKR R510Q; settings: without FBP; for AC50: read-out: D—AC50 LUM KGP woFBP AC50 μM gmean
Method: as §1, §2
Luminescence values were converted to % Fold increase by normalizing to the average of the DMSO control and multiplying by 100. Max, min, slope and AC50 were determined by the standard four parameter fit algorithm of ActivityBase XE Runner. Compounds were evaluated with three parameters—AC50, MAX % Fold, and % Fold@1.54 μM (FIG. 1). The AC50 value for a compound is the concentration (μM) corresponding to the midway between the maximum and minimum values of the four parameter logistic curve fit (i.e., at which the % fold increase along the four parameter logistic curve fit is halfway between MAX % Fold and MIN % Fold (% Fold Midpoint)), MAX % Fold is the highest fold increase observed at any concentration of compound, and % Fold@1.54 μM is the fold increase at a compound concentration of 1.54 μM. The parameter % Fold@1.54 μM was selected to capture elements of both the AC50 and MAX % Fold and to provide a ranking based on both potency and effect. […]

PKR(wt) = PKR(wt) (Homo sapiens, UniProt P30613); assay: Luminescence Biochemical Assay (Kinase Glo Plus), wild type PKR; settings: without FBP; for AC50: read-out: G—AC50 LUM KGP woFBP AC50 μM gmean
Method: as §1, §2
Luminescence values were converted to % Fold increase by normalizing to the average of the DMSO control and multiplying by 100. Max, min, slope and AC50 were determined by the standard four parameter fit algorithm of ActivityBase XE Runner. Compounds were evaluated with three parameters—AC50, MAX % Fold, and % Fold@1.54 μM (FIG. 1). The AC50 value for a compound is the concentration (μM) corresponding to the midway between the maximum and minimum values of the four parameter logistic curve fit (i.e., at which the % fold increase along the four parameter logistic curve fit is halfway between MAX % Fold and MIN % Fold (% Fold Midpoint)), MAX % Fold is the highest fold increase observed at any concentration of compound, and % Fold@1.54 μM is the fold increase at a compound concentration of 1.54 μM. The parameter % Fold@1.54 μM was selected to capture elements of both the AC50 and MAX % Fold and to provide a ranking based on both potency and effect. The compound concentration of 1.54 μM was chosen as one that can optimally differentiate the set of compounds based on the range of activities observed.
As set forth in Table 2 below, AC50 values (columns A, D, G) are defined as follows: ≤0.1 μM (+++); >0.1 μM and ≤1.0 μM (++); >1.0 μM and ≤40 μM (+); >40 μM (0). Max % FOLD values (columns B, E, H) are defined as follows: ≤75% (+); >75% and ≤250% (++); >250% and ≤500% (+++). % Fold@1.54 μM values (columns C, F, J) are defined as follows: ≤75% (+); >75% and ≤250% (++); >250% and ≤500% (+++).

Sequence of PKR(R510Q) (P30613 whole entry R510Q): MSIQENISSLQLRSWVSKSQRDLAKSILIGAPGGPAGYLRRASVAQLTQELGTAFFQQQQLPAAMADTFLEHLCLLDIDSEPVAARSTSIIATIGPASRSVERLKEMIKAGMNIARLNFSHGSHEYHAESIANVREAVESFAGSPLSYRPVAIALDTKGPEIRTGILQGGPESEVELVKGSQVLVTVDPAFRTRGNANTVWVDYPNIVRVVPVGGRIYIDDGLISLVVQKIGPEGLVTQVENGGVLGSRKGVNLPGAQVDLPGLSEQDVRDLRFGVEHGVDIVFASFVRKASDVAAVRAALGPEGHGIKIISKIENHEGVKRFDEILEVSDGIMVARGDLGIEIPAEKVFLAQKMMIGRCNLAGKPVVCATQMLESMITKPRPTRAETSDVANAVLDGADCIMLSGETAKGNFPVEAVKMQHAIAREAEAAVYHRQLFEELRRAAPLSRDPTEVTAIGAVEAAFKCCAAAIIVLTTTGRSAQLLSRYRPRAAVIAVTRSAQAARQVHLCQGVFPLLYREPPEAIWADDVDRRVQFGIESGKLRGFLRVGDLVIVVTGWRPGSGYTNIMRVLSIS
Sequence of PKR(wt) (P30613 whole entry): as the sequence (P30613 whole entry R510Q) above, with Q510R counted along it
Sequence of PKR(G332S) (P30613 whole entry G332S): as the sequence (P30613 whole entry R510Q) above, with G332S, Q510R counted along it

| Compound | AC50 (PKR(wt)) [µM] | AC50 (PKR(R510Q)) [µM] | also measured |
| --- | --- | --- | --- |
| O=C([C@H](O)c1ccccc1)N1CC2=C(C1)CN(S(=O)(=O)c1ccccn1)C2 [Compound 1, (2R)-2-hydroxy-2-phenyl-1-[5-(pyridine-2-sulfonyl)-1H,2H,3H,4H, 5H,6H-pyrrolo[3,4-c]pyrrol-2-yl]ethan-1-one] | ≤ 0.1 |  | B—AC50 LUM KGP FBP MAX % FOLD mean (PKR(G332S)): ++ (>75% and ≤250% (++)); C—AC50 LUM KGP FBP % Fold@1.54 μM mean (PKR(G332S); 1.54 μM compound): ++ (>75% and ≤250% (++)); E—AC50 LUM KGP woFBP MAX % FOLD mean (PKR(R510Q)): +++ (>250% and ≤500% (+++)); F—AC50 LUM KGP woFBP % Fold@1.54 μM mean (PKR(R510Q); 1.54 μM compound): ++ (>75% and ≤250% (++)); H—AC50 LUM KGP woFBP MAX % FOLD mean (PKR(wt)): ++ (>75% and ≤250% (++)); J—AC50 LUM KGP woFBP % Fold@1.54 μM mean (PKR(wt); 1.54 μM compound): ++ (>75% and ≤250% (++)) |
| Cc1nc2ccc(S(=O)(=O)N3CC4=C(CN(C(=O)Cc5ccc(Cl)cc5)C4)C3)cc2s1 [Compound 24] |  | 1 to 40 |  |
| C[C@@H](C(=O)N1CC2=C(C1)CN(S(=O)(=O)c1c[nH]c3c(Cl)nccc13)C2)c1ccccc1 [Compound 25] |  | 1 to 40 | AC50 (PKR(G332S)): 1 to 40 µM |
| CN1CCOc2ccc(S(=O)(=O)N3CC4=C(CN(C(=O)CC5CCOCC5)C4)C3)cc21 [Compound 26] | 1 to 40 |  |  |
| Cc1nn(C(C)C(=O)N2CC3=C(C2)CN(S(=O)(=O)c2ccc4occc4c2)C3)cc1Cl (centres unmarked) [Compound 27] | 1 to 40 |  |  |
| O=C(CC1CCS(=O)(=O)CC1)N1CC2=C(C1)CN(S(=O)(=O)c1ccc3occc3c1)C2 [Compound 28] | 1 to 40 |  |  |
| CC(=O)N1CCOc2ccc(S(=O)(=O)N3CC4=C(CN(C(=O)C(C)c5ccc(F)cc5)C4)C3)cc21 (centres unmarked) [Compound 29] | 1 to 40 |  |  |
| CN1CCOc2ccc(S(=O)(=O)N3CC4=C(CN(C(=O)C5(c6cccc(F)c6)CC5)C4)C3)cc21 [Compound 30] | 1 to 40 | 1 to 40 | AC50 (PKR(G332S)): 1 to 40 µM |
